From ChEMBL document CHEMBL4340512, “Discovery of novel triazolo[4,3-b]pyridazin-3-yl-quinoline derivatives as PIM inhibitors” (Eur J Med Chem, 2019)

What was measured:
CAKI-1 = experiment: Antiproliferative activity against human CAKI-1 cells incubated for 72 hrs by CellTiter-Glo luminescence assay; type: functional; conditions: CAKI-1, 72 h
SK-MEL19 = experiment: Antiproliferative activity against human SK-MEL-19 assessed as combination index at 5 uM incubated for 72 hrs in presence of GI50 dose of Lapatinib by CellTiter-Glo luminescence assay; type: functional
LNCaP = experiment: Antiproliferative activity against human LNCAP cells incubated for 72 hrs by CellTiter-Glo luminescence assay; type: functional
U-251 = experiment: Antiproliferative activity against human U251 cells incubated for 72 hrs by CellTiter-Glo luminescence assay; type: functional; conditions: U-251, 72 h
JeKo-1 = experiment: Antiproliferative activity against human JeKo1 assessed as combination index at 10 uM incubated for 72 hrs in presence of GI50 dose of GDC-0941 by CellTiter-Glo luminescence assay; type: functional
[1] = biological target: Serine/threonine-protein kinase pim-2 (Homo sapiens, UniProt Q9P1W9); experiment: Inhibition of His tagged human recombinant PIM2 using PIM tide (ARKRRRHPSGPPTA) as substrate incubated for 1 hr by fluorescence based assay
[2] = biological target: Serine/threonine-protein kinase pim-3 (Homo sapiens, UniProt Q86V86); experiment: Inhibition of N-terminal 6-His tagged human recombinant PIM3 using PIM tide (ARKRRRHPSGPPTA) as substrate incubated for 1 hr by fluorescence based assay
COLO 205 = experiment: Antiproliferative activity against human COLO205 cells incubated for 72 hrs by CellTiter-Glo luminescence assay; type: functional; conditions: COLO 205, 72 h
A673 = experiment: Antiproliferative activity against human A673 cells incubated for 72 hrs by CellTiter-Glo luminescence assay; type: functional; conditions: A673, 72 h
SW480 = experiment: Antiproliferative activity against human SW480 cells incubated for 72 hrs by CellTiter-Glo luminescence assay; type: functional; conditions: SW480, 72 h
DU-145 = experiment: Antiproliferative activity against human DU145 cells incubated for 72 hrs by CellTiter-Glo luminescence assay; type: functional; conditions: DU-145, 72 h
SK-OV-3 = experiment: Antiproliferative activity against human SKOV3 cells incubated for 72 hrs by CellTiter-Glo luminescence assay; type: functional; conditions: SK-OV-3, 72 h
MIA PaCa-2 [3] = experiment: Antiproliferative activity against human MIAPaCa2 assessed as combination index at 20 uM incubated for 72 hrs in presence of GI50 dose of GDC-0941 by CellTiter-Glo luminescence assay; type: functional
Raji [4] = experiment: Antiproliferative activity against human Raji assessed as combination index at 20 uM incubated for 72 hrs in presence of GI50 dose of Palbociclib by CellTiter-Glo luminescence assay; type: functional
MV4-11 [5] = experiment: Antiproliferative activity against human MV4-11 assessed as combination index at 10 uM incubated for 72 hrs in presence of GI50 dose of Lapatinib by CellTiter-Glo luminescence assay; type: functional
MCF7 = experiment: Antiproliferative activity against human MCF7 cells incubated for 72 hrs by CellTiter-Glo luminescence assay; type: functional; conditions: MCF7, 72 h
T47D = experiment: Antiproliferative activity against human T47D cells incubated for 72 hrs by CellTiter-Glo luminescence assay; type: functional
[6] = Clearance in iv dosed Balb/c mouse administered as single dose measured after 0.08 to 4 hrs by HPLC/MS analysis; type: ADME, organism-based; conditions: in vivo
T84 = experiment: Antiproliferative activity against human T84 cells incubated for 72 hrs by CellTiter-Glo luminescence assay; type: functional; conditions: T84, 72 h
MIA PaCa-2 [7] = experiment: Antiproliferative activity against human MIAPaCa2 cells incubated for 72 hrs by CellTiter-Glo luminescence assay; type: functional; conditions: MIA PaCa-2, 72 h
Raji [8] = experiment: Antiproliferative activity against human Raji cells incubated for 72 hrs by CellTiter-Glo luminescence assay; type: functional
ASPC1 = experiment: Antiproliferative activity against human Aspc-1 cells incubated for 72 hrs by CellTiter-Glo luminescence assay; type: functional; conditions: ASPC1, 72 h
SW-620 = experiment: Antiproliferative activity against human SW620 cells incubated for 72 hrs by CellTiter-Glo luminescence assay; type: functional; conditions: SW-620, 72 h
A498 = experiment: Antiproliferative activity against human A498 cells incubated for 72 hrs by CellTiter-Glo luminescence assay; type: functional; conditions: A498, 72 h
MIA PaCa-2 [9] = experiment: Antiproliferative activity against human MIAPaCa2 assessed as combination index at 20 uM incubated for 72 hrs in presence of GI50 dose of Lapatinib by CellTiter-Glo luminescence assay; type: functional
BXPC-3 = experiment: Antiproliferative activity against human BxPC3 cells incubated for 72 hrs by CellTiter-Glo luminescence assay; type: functional; conditions: BXPC-3, 72 h
MDA-MB-231 [10] = experiment: Antiproliferative activity against human MDA-MB-231 assessed as combination index at 20 uM incubated for 72 hrs in presence of GI50 dose of Lapatinib by CellTiter-Glo luminescence assay; type: functional
BT-549 = experiment: Antiproliferative activity against human BT549 cells incubated for 72 hrs by CellTiter-Glo luminescence assay; type: functional; conditions: BT-549, 72 h
[11] = Antiproliferative activity against human TC71 cells incubated for 72 hrs by CellTiter-Glo luminescence assay; type: functional; conditions: TC-71, 72 h
NAMALVA = experiment: Antiproliferative activity against human NAMALWA cells incubated for 72 hrs by CellTiter-Glo luminescence assay; type: functional
MV4-11 [12] = experiment: Antiproliferative activity against human MV4-11 assessed as combination index at 10 uM incubated for 72 hrs in presence of GI50 dose of GDC-0941 by CellTiter-Glo luminescence assay; type: functional
U-87 MG = experiment: Antiproliferative activity against human U87MG assessed as combination index at 20 uM incubated for 72 hrs in presence of GI50 dose of GDC-0941 by CellTiter-Glo luminescence assay; type: functional, U-87MG ATCC
MDA-MB-231 [13] = experiment: Antiproliferative activity against human MDA-MB-231 assessed as combination index at 20 uM incubated for 72 hrs in presence of GI50 dose of PD-0325901 by CellTiter-Glo luminescence assay; type: functional
MV4-11 [14] = experiment: Antiproliferative activity against human MV4-11 cells incubated for 72 hrs by CellTiter-Glo luminescence assay; type: functional; conditions: MV4-11, 72 h

Chain of Serine/threonine-protein kinase pim-2 (Q9P1W9 whole entry): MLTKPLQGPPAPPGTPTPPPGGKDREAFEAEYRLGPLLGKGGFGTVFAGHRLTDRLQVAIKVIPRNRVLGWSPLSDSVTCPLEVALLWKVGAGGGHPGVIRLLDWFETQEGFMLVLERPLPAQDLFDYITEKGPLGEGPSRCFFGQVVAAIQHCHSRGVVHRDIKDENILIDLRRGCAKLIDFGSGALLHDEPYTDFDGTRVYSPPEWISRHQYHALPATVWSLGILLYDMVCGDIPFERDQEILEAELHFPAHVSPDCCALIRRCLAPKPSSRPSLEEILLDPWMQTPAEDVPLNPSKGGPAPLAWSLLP

GI50 (LNCaP): 18.6 µM | GI50 (U-251): 17.8 µM | IC50 [1]: 5.53 µM | IC50 [2]: 0.07 µM | GI50 (COLO 205): 5.25 µM | GI50 (SW480): 8.17 µM | GI50 (DU-145): 22.4 µM | GI50 (SK-OV-3): 23.5 µM | GI50 (MCF7): 19.6 µM | GI50 (T47D): 10.8 µM | clearance [6]: 21 mL/min/kg | GI50 (MIA PaCa-2 [7]): 17.4 µM | GI50 (Raji [8]): 20 µM | GI50 (ASPC1): 7.25 µM | GI50 (SW-620): 8.73 µM | GI50 (BXPC-3): 9.21 µM | GI50 (BT-549): 20.4 µM | GI50 (MV4-11 [14]): 6.46 µM
Compound: COCCN1CCOc2c1cnn1c(-c3ccc4cccc(NCC5CCNCC5)c4n3)nnc21
GI50 (CAKI-1): 22.1 µM | CI (SK-MEL19): 0.508 | CI (JeKo-1): 0.295 | GI50 (A673): 12.7 µM | CI (MIA PaCa-2 [3]): 0.075 | CI (Raji [4]): 0.52 | CI (MV4-11 [5]): 0.43 | GI50 (T84): 23.2 µM | GI50 (A498): 8.98 µM | CI (MIA PaCa-2 [9]): 0.069 | CI (MDA-MB-231 [10]): 0.116 | GI50 [11]: 14.9 µM | GI50 (NAMALVA): 9.68 µM | CI (MV4-11 [12]): 0.334 | CI (U-87 MG): 0.008 | CI (MDA-MB-231 [13]): 0.32
